This is an account of results in patent US20020049249A1, “PPAR receptor activator compounds for treating cutaneous disorders/afflictions” (priority 1999, published 2002).

What all share (assay type): cell-based
One assay concerns the target T1, PPAR-β (Homo sapiens, UniProt Q03181).
T1 construct: expressed in transfected cells; host or cells: HeLa cells
T1 sequence (Q03181 1-441): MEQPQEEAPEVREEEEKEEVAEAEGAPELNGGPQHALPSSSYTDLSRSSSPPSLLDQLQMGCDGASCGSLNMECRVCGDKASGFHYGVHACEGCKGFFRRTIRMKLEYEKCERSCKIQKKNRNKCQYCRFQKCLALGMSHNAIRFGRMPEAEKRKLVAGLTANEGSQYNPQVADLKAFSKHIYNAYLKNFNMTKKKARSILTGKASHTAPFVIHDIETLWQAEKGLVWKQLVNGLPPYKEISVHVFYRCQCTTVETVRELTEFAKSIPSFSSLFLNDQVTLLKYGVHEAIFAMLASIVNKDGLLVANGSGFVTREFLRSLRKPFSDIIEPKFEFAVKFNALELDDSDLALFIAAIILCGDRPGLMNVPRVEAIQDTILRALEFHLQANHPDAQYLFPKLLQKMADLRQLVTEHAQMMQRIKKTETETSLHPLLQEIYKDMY
Description: PPAR-β transactivation test (luciferase reporter, cotransfected HeLa cells). The arrangement: % of activation, β: concentration or dose not given beside the values. The following applies: 24 hours; for % of activation, β: HeLa cells cotransfected with receptor vector and PPRE-luciferase reporter, relative to Reference 2; for AC50: HeLa cells cotransfected, concentration giving 50% of the activity of the reference molecule. As to the method: (§1) This activity is determined employing an enzyme (luciferase) which is a reporter of the activation due to the compound via one of the PPAR receptors.
(§2) The biological tests carried out correspond to those described above. […] Thus, the activating power via PPAR-α, PPAR-γ or PPAR-δ of molecules can be evaluated with a transactivation test in which HeLa cells were cotransfected with an expression vector encoding these receptors and a reporter plasmid comprising a PPRE response element cloned upstream of a portion of a promoter of the SV40 virus and of the luciferase gene. The cotransfected cells were treated for 24 hours with the molecules to be tested and the activity of the luciferase was determined by luminescence.

Another assay concerns the target T2, PPAR-α (Homo sapiens, UniProt Q07869).
T2 construct: expressed in transfected cells; host or cells: HeLa cells
T2 sequence (Q07869 1-468): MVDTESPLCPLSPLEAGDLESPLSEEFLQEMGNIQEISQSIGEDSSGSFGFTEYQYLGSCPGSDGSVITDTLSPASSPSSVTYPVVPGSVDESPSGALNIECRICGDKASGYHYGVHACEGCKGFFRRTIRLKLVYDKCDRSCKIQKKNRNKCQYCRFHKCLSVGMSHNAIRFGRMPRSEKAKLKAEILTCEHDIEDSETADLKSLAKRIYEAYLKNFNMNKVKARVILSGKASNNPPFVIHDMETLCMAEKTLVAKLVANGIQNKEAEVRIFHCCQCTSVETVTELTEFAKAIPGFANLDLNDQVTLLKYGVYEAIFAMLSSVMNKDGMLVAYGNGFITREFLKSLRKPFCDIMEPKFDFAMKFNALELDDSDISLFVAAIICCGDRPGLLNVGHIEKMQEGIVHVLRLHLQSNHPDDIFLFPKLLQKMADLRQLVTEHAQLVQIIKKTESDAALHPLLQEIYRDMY
Description: PPAR-α transactivation test (luciferase reporter, cotransfected HeLa cells). Set-up: concentration or dose not given beside the values. The following applies: HeLa cells cotransfected with receptor vector and PPRE-luciferase reporter, 24 hours; relative to Reference 1. As to the method:
as §1, §2

For a further assay, the target named is T3, PPAR-γ (Homo sapiens, UniProt P37231).
T3 construct: expressed in transfected cells; host or cells: HeLa cells
T3 sequence (P37231 1-505): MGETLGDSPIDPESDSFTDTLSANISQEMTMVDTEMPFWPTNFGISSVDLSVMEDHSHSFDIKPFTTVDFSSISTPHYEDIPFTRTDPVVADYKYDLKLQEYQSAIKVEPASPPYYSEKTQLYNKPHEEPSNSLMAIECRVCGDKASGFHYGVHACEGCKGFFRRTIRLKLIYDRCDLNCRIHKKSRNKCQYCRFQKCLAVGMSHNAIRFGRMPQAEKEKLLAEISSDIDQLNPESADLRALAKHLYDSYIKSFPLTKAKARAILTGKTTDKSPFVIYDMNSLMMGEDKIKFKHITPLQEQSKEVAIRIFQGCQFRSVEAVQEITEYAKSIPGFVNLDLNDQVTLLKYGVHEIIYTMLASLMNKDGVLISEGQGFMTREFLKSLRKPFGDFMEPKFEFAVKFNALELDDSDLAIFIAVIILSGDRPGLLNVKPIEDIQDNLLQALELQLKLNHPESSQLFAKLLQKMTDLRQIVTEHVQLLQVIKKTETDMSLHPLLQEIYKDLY
In words: PPAR-γ transactivation test (luciferase reporter, cotransfected HeLa cells). Set-up: concentration or dose not given beside the values. The following applies: HeLa cells cotransfected with receptor vector and PPRE-luciferase reporter, 24 hours; relative to Reference 2. As to the method: as §1, §2

Turning to `CC1(C)CCC(C)(C)c2cc(Oc3ccc4cc(C(=O)O)ccc4c3)ccc21` [Compound 1, 6-(5,5,8,8-tetramethyl-5,6,7,8-tetrahydronaphth-2-yloxy)naphthalene-2-carboxylic acid], at PPAR-β, the “% of activation, β” value turned out to be 152% and the activity was half-maximal at 700 nM (AC50). At PPAR-α, the “% of activation, α” value stood at 18%. Also, the “% of activation, γ” value at PPAR-γ was determined as 23%.

As to `Cc1cccc(Nc2cc(Cl)nc(SCC(=O)O)n2)c1C` [Reference 1, [4-chloro-6-(2,3-dimethyl-phenylamino)pyrimidin-2-ylsulfanyl]acetic acid, reference compound], the “% of activation, α” value on PPAR-α is recorded as 100%.

Consider `CC(=O)NC(=Cc1ccc(Oc2ccc3c(c2)C(C)(C)CCC3(C)C)cc1)C(=O)O` [Comparative Example 2, 2-acetylamino-3-[4-(5,5,8,8-tetramethyl-5,6,7,8-tetrahydronaphth-2-yloxy)phenyl]-acrylic acid, reference compound], for which the “% of activation, β” value at PPAR-β was found to be 0%. Also, the “% of activation, α” value on PPAR-α was 7%. On PPAR-γ, the “% of activation, γ” value was determined as 4%.

For `CC1(C)CCC(C)(C)c2cc(Sc3ccc4cc(C(=O)O)ccc4c3)ccc21` [Compound 3, 6-(5,5,8,8-tetramethyl-5,6,7,8-tetrahydronaphth-2-ylsulfanyl)naphthalene-2-carboxylic acid], on PPAR-β, the “% of activation, β” value was 172% and the AC50 (commonly the concentration giving half of the maximal activity seen) amounted to 200 nM. In addition, the “% of activation, α” value at PPAR-α is 24%. The “% of activation, γ” value on PPAR-γ came to 40%.

With `CC1(C)CCC(C)(C)c2cc(Nc3ccc4cc(C(=O)O)ccc4c3)ccc21` [Compound 5, 6-(5,5,8,8-tetramethyl-5,6,7,8-tetrahydronaphth-2-ylamino)naphthalene-2-carboxylic acid], on PPAR-β, the “% of activation, β” value worked out at 328% and the AC50 was found to be 7000 nM. Also, the “% of activation, α” value on PPAR-α was 25%. The “% of activation, γ” value at PPAR-γ stood at 69%.

As for `CC1=NC(=Cc2ccc(Oc3ccc4c(c3)C(C)(C)CCC4(C)C)cc2)C(=O)O1` [Comparative Example 1, 2-methyl-4-[4-(5,5,8,8,-tetramethyl-5,6,7,8-tetrahydronaphth-2-yloxy)benzylidine]-4H-oxazol-5-one, reference compound], at PPAR-β, the “% of activation, β” value was found to be 7%. Besides, the “% of activation, α” value at PPAR-α is reported as 5%. Moreover, the “% of activation, γ” value on PPAR-γ stood at 0%.

With `CC1(C)CCC(C)(C)c2cc(Oc3ccc(C=CC(=O)O)cc3)ccc21` [Compound 2, 3-[4-(5,5,8,8-tetramethyl-5,6,7,8-tetrahydronaphth-2-yloxy)phenyl]acrylic acid], on PPAR-β, the “% of activation, β” value amounted to 204% and the AC50 was 900 nM. Further, the “% of activation, α” value at PPAR-α is 12%. Besides, the “% of activation, γ” value at PPAR-γ is reported as 18%.

On to `CC(=CC(=O)O)c1ccc(Oc2ccc3c(c2)C(C)(C)CCC3(C)C)cc1` [Compound 4, 3-[4-(5,5,8,8-tetramethyl-5,6,7,8-tetrahydronaphth-2-yloxy)phenyl]but-2-enoic acid], for which the “% of activation, β” value at PPAR-β is on record as 56%. Further, the “% of activation, α” value on PPAR-α was found to be 12%. The “% of activation, γ” value on PPAR-γ worked out at 0%.
